Reference: patent US9139609B2, “C-4″ position substituted macrolide derivative” (priority 2011, dated 2015)
≈ marks a conversion by molar mass, not a printed value.

Key:
Assay type in all cases: cell-based
[1] = test system: Streptococcus pneumoniae ATCC49619; assay: In vitro antibacterial activity, microbroth dilution method (CLSI method), test bacterium B; settings: read-out: MIC (minimum inhibitory concentration), test bacterium B
Description: (§1) In vitro antibacterial activities of the compounds of the present invention against various test bacteria were measured according to the microbroth dilution method (CLSI method). Among them, the bacteria C, D and E are erythromycin resistant bacteria. The MIC values (minimum inhibitory concentration, μg/ml) for the test bacteria A and B are exemplified in Table 22.

[2] = test system: Haemophilus infuenzae ATCC43095; assay: In vitro antibacterial activity, microbroth dilution method (CLSI method), test bacterium A; settings: read-out: MIC (minimum inhibitory concentration), test bacterium A
Description: as §1

[3] = test system: Streptococcus pyogenes M808; assay: In vitro antibacterial activity, microbroth dilution method (CLSI method), test bacterium D (erythromycin resistant); settings: read-out: MIC (minimum inhibitory concentration), test bacterium D
Description: as §1

[4] = test system: Streptococcus pneumoniae ATCC700904; assay: In vitro antibacterial activity, microbroth dilution method (CLSI method), test bacterium C (erythromycin resistant); settings: read-out: MIC (minimum inhibitory concentration), test bacterium C
Description: as §1

| Structure (SMILES) | MIC [1] [µg/mL] | MIC [2] [µg/mL] | MIC [3] [µg/mL] | MIC [4] [µg/mL] |
| --- | --- | --- | --- | --- |
| CC[C@H]1OC(=O)[C@H](C)[C@@H](O[C@H]2C[C@@](C)(OC)[C@@](O)(CN(C)CCN(C)C(C)(C)c3ccccc3OC)[C@H](C)O2)[C@H](C)[C@@H](O[C@@H]2O[C@H](C)C[C@H](N(C)C)[C@H]2O)[C@@](C)(OC)C[C@@H](C)C(=O)[C@H](C)[C@H]2C(C#N)C(=O)O[C@@]21C (stereo partly drawn) [Example363] | 0.06 (≈ 0.0574 µM) | 8 (≈ 7.65 µM) |  |  |
| CC[C@H]1OC(=O)[C@H](C)[C@@H](O[C@H]2C[C@@](C)(OC)[C@@](O)(CN(CC)CCN(CC)CC)[C@H](C)O2)[C@H](C)[C@@H](O[C@@H]2O[C@H](C)C[C@H](N(C)C)[C@H]2O)[C@@](C)(OC)C[C@@H](C)C(=O)[C@H](C)[C@H]2N(CCNS(C)(=O)=O)C(=O)O[C@]12C [Example413] | 0.03 (≈ 0.0286 µM) | 4 (≈ 3.81 µM) |  |  |
| CC[C@H]1OC(=O)[C@H](C)[C@@H](O[C@H]2C[C@@](C)(OC)[C@@](O)(CN(C)CCN(CC)C(C)=O)[C@H](C)O2)[C@H](C)[C@@H](O[C@@H]2O[C@H](C)C[C@H](N(C)C)[C@H]2O)[C@@](C)(OC)C[C@@H](C)C(=O)[C@H](C)[C@H]2NC(=O)O[C@@]21C [Example263] | 0.06 (≈ 0.0646 µM) | 8 (≈ 8.61 µM) |  |  |
| CC[C@H]1OC(=O)[C@H](C)[C@@H](O[C@H]2C[C@@](C)(OC)[C@@](O)(CN(C)CCN(C)C(C)(C)c3ccccc3OC)[C@H](C)O2)[C@H](C)[C@@H](O[C@@H]2O[C@H](C)C[C@H](N(C)C)[C@H]2O)[C@@](C)(OC)C[C@@H](C)[C@@H]2NCCN3C(=O)O[C@@]1(C)[C@H]3[C@@H]2C [Example340] | 0.06 (≈ 0.0572 µM) | 4 (≈ 3.82 µM) |  |  |
| CC[C@H]1OC(=O)[C@H](C)[C@@H](O[C@H]2C[C@@](C)(OC)[C@@](O)(CN(C)CCN(C)C(C)(C)c3ccccc3OC)[C@H](C)O2)[C@H](C)[C@@H](O[C@@H]2O[C@H](C)C[C@H](N(C)C)[C@H]2O)[C@]2(C)C[C@@H](C)C(O2)[C@H](C)[C@H]2NC(=O)O[C@@]21C [Example 332] |  |  | ≥ 16 | 0.5 to 2 (≈ 0.504 to 2.02 µM) |
| CC[C@H]1OC(=O)[C@H](C)[C@@H](O[C@H]2C[C@@](C)(OC)[C@@](O)(CN(C)CCN(CC)CC)[C@H](C)O2)[C@H](C)[C@@H](O[C@@H]2O[C@H](C)C[C@H](N(C)C)[C@H]2O)[C@@](C)(OC)C[C@@H](C)C(=O)[C@H](C)[C@H]2N(CC3CCS(=O)(=O)C3)C(=O)O[C@]12C (stereo partly drawn) [Example 154] |  |  | 4 to 8 (≈ 3.82 to 7.64 µM) | 0.12 to 0.25 (≈ 0.115 to 0.239 µM) |

The remaining lines, values ahead:

| MIC [1] [µg/mL] | MIC [2] [µg/mL] | MIC [3] [µg/mL] | MIC [4] [µg/mL] | Structure (SMILES) |
| --- | --- | --- | --- | --- |
| 0.03 (≈ 0.0282 µM) | 4 (≈ 3.76 µM) |  |  | CC[C@H]1OC(=O)[C@H](C)[C@@H](O[C@H]2C[C@@](C)(OC)[C@@](O)(CN(C)CCN(CC)CC)[C@H](C)O2)[C@H](C)[C@@H](O[C@@H]2O[C@H](C)C[C@H](N(C)C)[C@H]2O)[C@@](C)(OC)C[C@@H](C)C(=O)[C@H](C)[C@H]2N(CCN3CCNS3(=O)=O)C(=O)O[C@]12C [Example440] |
|  |  | ≤ 2 | 0.12 to 0.25 (≈ 0.113 to 0.236 µM) | CC[C@H]1OC(=O)[C@H](C)[C@@H](O[C@H]2C[C@@](C)(OC)[C@@](O)(CN(C)CCN(CC)C3CCC3)[C@H](C)O2)[C@H](C)[C@@H](O[C@@H]2O[C@H](C)C[C@H](N(C)C)[C@H]2O)[C@@](C)(OC)C[C@@H](C)C(=O)[C@H](C)[C@H]2N(CCCS(C)(=O)=O)C(=O)O[C@]12C [Example 418] |
| 0.06 (≈ 0.0573 µM) | 4 (≈ 3.82 µM) |  |  | CC[C@H]1OC(=O)[C@H](C)[C@@H](O[C@H]2C[C@@](C)(OC)[C@@](O)(CN(C)CCN(CC)CC)[C@H](C)O2)[C@H](C)[C@@H](O[C@@H]2O[C@H](C)C[C@H](N(C)C)[C@H]2O)[C@@](C)(OC)C[C@@H](C)C(=O)[C@H](C)[C@H]2N(CC3CCS(=O)(=O)C3)C(=O)O[C@]12C (stereo partly drawn) [Example154] |
| 0.03 (≈ 0.0274 µM) | 8 (≈ 7.32 µM) |  |  | CC[C@H]1OC(=O)[C@H](C)[C@@H](O[C@H]2C[C@@](C)(OC)[C@@](O)(CN(C)CCN(C)C)[C@H](C)O2)[C@H](C)[C@@H](O[C@@H]2O[C@H](C)C[C@H](N(C)C)[C@H]2O)[C@@](C)(OC)C[C@@H](C)C(=O)[C@H](C)[C@H]2C(SCCCn3cnc4c(N)ncnc43)C(=O)O[C@@]21C (stereo partly drawn) [Example364] |
|  |  | 4 to 8 (≈ 3.76 to 7.52 µM) | 0.12 to 0.25 (≈ 0.113 to 0.235 µM) | CC[C@H]1OC(=O)[C@H](C)[C@@H](O[C@H]2C[C@@](C)(OC)[C@@](O)(CN(C)CCN(C(C)C)C(C)C)[C@H](C)O2)[C@H](C)[C@@H](O[C@@H]2O[C@H](C)C[C@H](N(C)C)[C@H]2O)[C@@](C)(OC)C[C@@H](C)C(=O)[C@H](C)[C@H]2N(CCS(=O)(=O)NC)C(=O)O[C@]12C [Example 451] |
| 0.03 (≈ 0.0283 µM) | 4 (≈ 3.77 µM) |  |  | CC[C@H]1OC(=O)[C@H](C)[C@@H](O[C@H]2C[C@@](C)(OC)[C@@](O)(CN(C)CCN(CC)C3CCC3)[C@H](C)O2)[C@H](C)[C@@H](O[C@@H]2O[C@H](C)C[C@H](N(C)C)[C@H]2O)[C@@](C)(OC)C[C@@H](C)C(=O)[C@H](C)[C@H]2N(CCCS(C)(=O)=O)C(=O)O[C@]12C [Example418] |
